Compound in assay [1]: CCc1cc(Nc2nccc(-c3c(-c4ccc(OC)c(C(=O)Nc5c(F)cccc5F)c4)nc4ccccn34)n2)c(OC)cc1N1CCC(N2CCN(S(C)(=O)=O)CC2)CC1
The assay can be described thus: surviving fraction relative to DMSO-only wells; higher = less growth inhibition. Conditions: exposure time: 5 days. The essentials: (§1)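 Log-phase tumour cells were seeded at 250–500 per well in 384-well plates and, from 24 hours after seeding, exposed continuously for five days to inhibitors at 0.5, 1, 5, 10, 50, 100, 500 and 1000 nM. Surviving fraction is CellTiter-Glo luminescence normalised to the median of DMSO-only wells. Luminescence was measured after 10 minutes at room temperature, and only lines screened three times with replicate Pearson r >0.7 and median Z' >0.3 were kept.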

Compound in assay [2]: Cn1ncnc1[C@H]1c2n[nH]c(=O)c3cc(F)cc(c23)N[C@@H]1c1ccc(F)cc1 [BMN-673]
The description is as above. Conditions: exposure time: 5 days. The essentials:
as §1

± gives the standard deviation of the averaged measurements.

This note sets out measurements from the supplement of paper PMC6045584.

For the test system SCC36 HEADNECK, the surviving fraction in assay [1] (0.5 nM) is 0.967 ± 0.035; in assay [1] (1 nM), 1.04 ± 0.096; in assay [1] (5 nM), 1.11 ± 0.091; in assay [1] (10 nM), 1.1 ± 0.072; in assay [1] (50 nM) it was 1.07 ± 0.027; in assay [1] (100 nM), 1.09 ± 0.078. For the same test system, the surviving fraction in assay [1] (500 nM) is 0.887 ± 0.03; in assay [1] (1000 nM), 0.791 ± 0.024; in assay [2] (0.5 nM), 1.13 ± 0.041; in assay [2] (1 nM), 0.988 ± 0.087; in assay [2] (5 nM), 0.95 ± 0.15; in assay [2] (10 nM) it was 0.886 ± 0.025. For the same test system, the surviving fraction amounted to 0.77 ± 0.089 in assay [2] (50 nM), 0.586 ± 0.0076 in assay [2] (100 nM), 0.436 ± 0.056 in assay [2] (500 nM) and 0.352 ± 0.07 in assay [2] (1000 nM).

Take MDAMB453 BREAST: the surviving fraction in assay [1] (0.5 nM) turned out to be 1.02 ± 0.037; in assay [1] (1 nM), 1.09 ± 0.12; in assay [1] (5 nM), 1.14 ± 0.043; in assay [1] (10 nM), 1.08 ± 0.054; in assay [1] (50 nM), 1.12 ± 0.029; in assay [1] (100 nM), 1.16 ± 0.031. The surviving fraction is 1.02 ± 0.061 in assay [1] (500 nM); 1.07 ± 0.086 in assay [1] (1000 nM); 1.1 ± 0.11 in assay [2] (0.5 nM); 1.03 ± 0.054 in assay [2] (1 nM); 1.12 ± 0.13 in assay [2] (5 nM); 0.881 ± 0.057 in assay [2] (10 nM). The surviving fraction was determined as 0.724 ± 0.056 in assay [2] (50 nM), 0.57 ± 0.029 in assay [2] (100 nM), 0.454 ± 0.019 in assay [2] (500 nM) and 0.495 ± 0.044 in assay [2] (1000 nM).

On to HCC1395 BREAST, for which the surviving fraction turned out to be 0.903 ± 0.1 in assay [1] (0.5 nM); 0.903 ± 0.17 in assay [1] (1 nM); 0.965 ± 0.24 in assay [1] (5 nM); 0.916 ± 0.037 in assay [1] (10 nM); 1.13 ± 0.2 in assay [1] (50 nM); 0.831 ± 0.19 in assay [1] (100 nM). For the same test system, the surviving fraction in assay [1] (500 nM) worked out at 0.855 ± 0.22; in assay [1] (1000 nM) it was 0.934 ± 0.17; in assay [2] (0.5 nM) it was 1 ± 0.13; in assay [2] (1 nM), 0.991 ± 0.081; in assay [2] (5 nM) it was 0.86 ± 0.054; in assay [2] (10 nM), 0.967 ± 0.045. Further, the surviving fraction in assay [2] (50 nM) amounted to 0.892 ± 0.064; in assay [2] (100 nM), 0.8195 ± 0.0048; in assay [2] (500 nM), 0.715 ± 0.039; in assay [2] (1000 nM) it was 0.637 ± 0.12.

For HOSMNG BONE, the surviving fraction in assay [1] (0.5 nM) is 0.956 ± 0.057; in assay [1] (1 nM), 0.9987 ± 0.0055; in assay [1] (5 nM) it was 0.989 ± 0.024; in assay [1] (10 nM), 1.02 ± 0.086; in assay [1] (50 nM) it was 1 ± 0.051; in assay [1] (100 nM), 1.05 ± 0.087. Moreover, the surviving fraction in assay [1] (500 nM) was found to be 1.05 ± 0.061; in assay [1] (1000 nM) it was 1.05 ± 0.057; in assay [2] (0.5 nM), 1.07 ± 0.056; in assay [2] (1 nM), 1.04 ± 0.029; in assay [2] (5 nM) it was 0.968 ± 0.017; in assay [2] (10 nM) it was 1.01 ± 0.019. For the same test system, the surviving fraction in assay [2] (50 nM) is 1.03 ± 0.031; in assay [2] (100 nM), 1.05 ± 0.046; in assay [2] (500 nM), 0.849 ± 0.047; in assay [2] (1000 nM), 0.645 ± 0.023.

For the test system SG32 HEADNECK, the surviving fraction in assay [1] (0.5 nM) was found to be 1.07 ± 0.22; in assay [1] (1 nM), 1.11 ± 0.026; in assay [1] (5 nM), 1.15 ± 0.089; in assay [1] (10 nM), 1.17 ± 0.15; in assay [1] (50 nM), 1.15 ± 0.23; in assay [1] (100 nM), 1.21 ± 0.1. Also, the surviving fraction was found to be 1.6 ± 0.59 in assay [1] (500 nM); 1.15 ± 0.017 in assay [1] (1000 nM); 1.13 ± 0.067 in assay [2] (0.5 nM); 0.975 ± 0.17 in assay [2] (1 nM); 1.08 ± 0.29 in assay [2] (5 nM); 0.985 ± 0.094 in assay [2] (10 nM). The surviving fraction was 0.872 ± 0.12 in assay [2] (50 nM), 1.22 ± 0.82 in assay [2] (100 nM), 0.622 ± 0.0068 in assay [2] (500 nM) and 0.49 ± 0.044 in assay [2] (1000 nM).

For the test system MFM223 BREAST, the surviving fraction amounted to 1.14 ± 0.05 in assay [1] (0.5 nM); 1.15 ± 0.036 in assay [1] (1 nM); 1.1 ± 0.08 in assay [1] (5 nM); 1.15 ± 0.027 in assay [1] (10 nM); 1.15 ± 0.012 in assay [1] (50 nM); 1.21 ± 0.06 in assay [1] (100 nM). Besides, the surviving fraction turned out to be 1.19 ± 0.033 in assay [1] (500 nM); 1.05 ± 0.079 in assay [1] (1000 nM); 1.25 ± 0.069 in assay [2] (0.5 nM); 1.2 ± 0.073 in assay [2] (1 nM); 1.07 ± 0.25 in assay [2] (5 nM); 0.9232 ± 0.0025 in assay [2] (10 nM). For the same test system, the surviving fraction came to 0.805 ± 0.015 in assay [2] (50 nM), 0.755 ± 0.047 in assay [2] (100 nM), 0.734 ± 0.027 in assay [2] (500 nM) and 0.713 ± 0.072 in assay [2] (1000 nM).

Consider MDAMB134 BREAST, for which the surviving fraction in assay [1] (0.5 nM) worked out at 1.21 ± 0.028; in assay [1] (1 nM) it was 1.02 ± 0.034; in assay [1] (5 nM), 0.988 ± 0.11; in assay [1] (10 nM) it was 1.05 ± 0.13; in assay [1] (50 nM) it was 1.03 ± 0.27; in assay [1] (100 nM), 0.906 ± 0.12. In addition, the surviving fraction came to 0.882 ± 0.16 in assay [1] (500 nM); 0.996 ± 0.18 in assay [1] (1000 nM); 0.955 ± 0.085 in assay [2] (0.5 nM); 0.908 ± 0.14 in assay [2] (1 nM); 0.971 ± 0.057 in assay [2] (5 nM); 0.929 ± 0.014 in assay [2] (10 nM). The surviving fraction in assay [2] (50 nM) came out at 1.01 ± 0.067; in assay [2] (100 nM), 0.991 ± 0.025; in assay [2] (500 nM), 0.857 ± 0.23; in assay [2] (1000 nM), 0.775 ± 0.08.

H23 LUNG: the surviving fraction in assay [1] (0.5 nM) stood at 0.939 ± 0.042; in assay [1] (1 nM) it was 1.02 ± 0.032; in assay [1] (5 nM), 0.973 ± 0.012; in assay [1] (10 nM), 1.06 ± 0.078; in assay [1] (50 nM), 0.997 ± 0.014; in assay [1] (100 nM), 1.02 ± 0.038. The surviving fraction in assay [1] (500 nM) was 1.02 ± 0.029; in assay [1] (1000 nM) it was 1 ± 0.032; in assay [2] (0.5 nM), 1.07 ± 0.04; in assay [2] (1 nM), 1.07 ± 0.056; in assay [2] (5 nM), 1.06 ± 0.054; in assay [2] (10 nM), 0.937 ± 0.014. The surviving fraction worked out at 0.779 ± 0.024 in assay [2] (50 nM), 0.688 ± 0.055 in assay [2] (100 nM), 0.507 ± 0.23 in assay [2] (500 nM) and 0.238 ± 0.02 in assay [2] (1000 nM).
